Laboratory results from patent US8410173B2, “Inhibition of JAK2 as a treatment of pulmonary arterial hypertension” (YM Biosciences Australia Pty Ltd, priority 2006, dated 2013).
“Also recorded” adds a separate entry of the source. Marks after values point to notes of the source that are not given here.

Key:
[1] = test system: rat monocrotaline model of PAH; conditions: cited from earlier work; for efficacy in the rat monocrotaline model of PAH: sildenafil oral, alone or in combination with beraprost
[2] = test system: plexiform lesions in lungs of monocrotaline treated rats; assay: histological studies (H&E) of lungs, rat monocrotaline model; type: in vivo; conditions: AG490 1 mg/kg tid, H&E stains of formalin fixed lungs
Procedure: A. Normal lung; B. Lung from monocrotaline treated animal. C. Lung from rat given monocrotaline and AG490 1 mg/kg tid. The arrows point to pulmonary arterioles.
Histological studies of the lungs from group 2 and group 5 were performed to determine the effect of selective JAK2 inhibition on the pulmonary vascular lesions associated with PAH.

[3] = test system: rat monocrotaline model of pulmonary arterial hypertension; assay: rat monocrotaline model of pulmonary arterial hypertension, RV pressures; type: in vivo; conditions: for RVEDP Mean / RVS Mean Difference (I − J) vs group 1 (saline control) / RVS Mean Difference (I − J) vs group 2 (monocrotaline, vehicle): day 21
Procedure: To test the efficacy of JAK2 inhibition as a treatment for PAH, the rat monocrotaline model of pulmonary arterial hypertension was used. Animals with pulmonary arterial hypertension induced by monocrotaline were treated for three weeks with the selective JAK2 inhibitor, AG490, or vehicle. AG490 is a tyrphostin based tyrosine kinase inhibitor selective for JAK2.

[4] = group 3, AG490 1 mg/kg/day SID IP
[5] = group 4, AG490 3 mg/kg/day SID IP
[6] = group 5, AG490 1 mg/kg/dose TID IP

For Cc1ccc(NC(=O)c2ccc(CN3CCN(C)CC3)cc2)cc1Nc1nccc(-c2cccnc2)n1 [imantinib], the RV systolic pressure ([1]; rat monocrotaline model) is listed as “decreased” and the survival ([1]; rat monocrotaline model) is listed as “improved survival”.
In the case of O=C(C(=O)N1CCn2nc(-c3ccc(F)cc3)c(-c3ccncc3)c2N1)c1ccccc1.O=S(=O)(O)O [FR167653], the “progression of PAH” value ([1]; rat monocrotaline model) is listed as “decrease the progression of PAH”.
In the case of CC#CCC(C)[C@H](O)/C=C/[C@@H]1[C@H]2C/C(=C/CCCC(=O)O)C[C@H]2C[C@H]1O (stereo partly shown) [iloprost], the “efficacy in the rat monocrotaline model of PAH” value [1] is given as “showed efficacy”.
With N#C/C(=C\c1ccc(O)c(O)c1)C(=O)NCc1ccccc1 [AG490] the “plexiform lesions associated with pulmonary arterial hypertension” value [2] was “prevented the formation of plexiform lesions; also recorded: decreased”, the “reduction of RV systolic pressure vs vehicle treated group” value ([3]; AG490 1 mg/kg tid, day 21, p=0.023) was 24% and the RV systolic pressure ([3]; AG490 1 mg/kg tid, monocrotaline treated rats, day 21 (group 5), vehicle 38.44±3.1) was 29.23±4.5 mm Hg. For the same compound, the “RV systolic pressure improvement, in words” value ([3]; group 3, AG490 1 mg/kg/day) was “No improvement”, the “RVEDP Mean Difference (I − J) vs group 1 (saline control)” value [3, 4] was 5.5436 and the “RVEDP Mean Difference (I − J) vs group 2 (monocrotaline, vehicle)” value [3, 4] was “−.0585”. The “RVEDP Mean” value [3, 4] was 4.042 mm Hg, the “RVS Mean Difference (I − J) vs group 1 (saline control)” value (“RVS Mean Difference … (saline control)” for short) [3, 4] was 11.468* and the “RVS Mean Difference (I − J) vs group 2 (monocrotaline, vehicle)” value [3, 4] was −2.487. The “RVEDP Mean Difference (I − J) vs group 1 (saline control)” value [3, 5] was “.6433”, the “RVEDP Mean Difference (I − J) vs group 2 (monocrotaline, vehicle)” value [3, 5] was −4.9588 and the “RVEDP Mean” value [3, 5] was “−.858 mm Hg”. The “RVS Mean Difference … (saline control)” value [3, 5] was 6.730, the “RVS Mean Difference (I − J) vs group 2 (monocrotaline, vehicle)” value [3, 5] was −7.225 and the “RV systolic pressure compared to group 2 (vehicle only), in words” value ([3]; group 5, AG490 1 mg/kg tid, p=0.023, 1 mg/kg) was “significantly reduced; also recorded: significant reduction; also recorded: significantly lower”. The “RV End diastolic pressure compared to group 2 (vehicle), in words” value ([3]; group 5, AG490 1 mg/kg tid, p=0.05) was “significantly lower”, the “RVEDP Mean Difference (I − J) vs group 1 (saline control)” value [3, 6] was “−.0193” and the “RVEDP Mean Difference (I − J) vs group 2 (monocrotaline, vehicle)” value [3, 6] was −5.6214*. For the same compound, the “RVEDP Mean” value [3, 6] was −1.521 mm Hg, the “RVS Mean Difference … (saline control)” value [3, 6] was 4.741 and the “RVS Mean Difference (I − J) vs group 2 (monocrotaline, vehicle)” value [3, 6] was −9.214*.
For CCCc1nn(C)c2c(=O)[nH]c(-c3cc(S(=O)(=O)N4CCN(C)CC4)ccc3OCC)nc12 [sildenafil], the “efficacy in the rat monocrotaline model of PAH” value [1] is listed as “showed efficacy”.
In the case of O=S(=O)(c1cccc2cnccc12)N1CCCNCC1 [fasudil], the “progression of PAH” value ([1]; rat monocrotaline model) is listed as “prevented the progression of PAH”, the “pulmonary arterial hypertension, pulmonary vascular lesions, endothelial cell dysfunction, and RV hypertrophy” value ([1]; rat monocrotaline model) is listed as “decreased” and the survival ([1]; rat monocrotaline model) is listed as “improved survival”.
For COc1ccccc1Oc1c(NS(=O)(=O)c2ccc(C(C)(C)C)cc2)nc(-c2ncccn2)nc1OCCO [bosentan], the pulmonary artery thickening ([1]; rat monocrotaline model) is listed as “decrease pulmonary artery thickening” and the pulmonary hypertension ([1]; rat monocrotaline model) is listed as “reduce pulmonary hypertension”.
